Data: patent publication US12570704B2, “Functionally modified maytansinoids and compositions and methods of use thereof” (University of Georgia Research Foundation, Inc., priority 2019, dated 2026)

Assays:
[1] = test system: H1299 tumor bearing nude mice; assay: In vivo therapy study with X-ray irradiation; conditions: 260.8 nmol/kg i.v. + 6 Gy after 4 h; RT only 1826.4
Description: All animal experiments were performed according to protocols approved by the Institutional Animal Care and Use Committee (IACUC). Female athymic nude mice (Charles River Laboratories, USA) at 6 weeks old were housed in a protected unit specified for immunodeficient animals. To establish tumor models, H1299 cells (2×10^5 cells) were suspend in a matrigel solution and were subcutaneously injected into mice using a 28-gauge needle. All mice were randomized into six groups (n=5). When the average tumor volume reached 150 mm3, 200 μL free drug (DM1, DM1-NO) or drug loaded NPs (DM1-NPs, DM1-NO-NPs) in PBS at a dose of 260.8 nmol/kg were injected intravenously into the mice. Mice treated with 200 μL PBS were studied as a control. All the other mice received X-ray irradiation (6 Gy, 320 kV) to tumors 4 h after drug/nanoparticle injection, with the rest of the body shielded by lead. Tumor size and body weight were inspected every 3 days using a digital caliper, and the tumor volume was estimated as (length)×(width)2/2. After 24 days, the mice were euthanized, and the tumor was excised and dissected into slices for hematoxylin and eosin (H&E) staining.
In vivo therapy studies were performed with H1299 tumor bearing nude mice. When tumor size reached 150 mm3, DM1-NO-NPs (260.8 nmol/kg, equivalent to 0.2 mg DM1/kg) was intravenously (i.v.) injected into the animals (n=5). […]

H1299 cells = assay: Superoxide dismutase (SOD) assay, cytosolic and mitochondrial; assay type: cell-based, human; conditions: +RT (6 Gy), 20 nM, compared to DM1+RT
Description: Around 3×10^4 cells per well were seeded into each well of a six-well plate and cultured overnight. The cells treated with free drug (DM1 and DM1-NO), and drug loaded nanoparticles (DM1-NPs and DM1-NO-NPs) were given the same concentration of drug (20 nM) and irradiated with 6 Gy of radiation. The plates were then incubated for 24 h. After the treatment, the cells were rinsed with PBS, and the cell pellets were collected using a cell scraper. Cells were homogenized using a sonicator in ice-cold 20 mM 4-(2-hydroxyethyl)-1-piperazineethanesulfonic acid (HEPS) buffer (pH 7.2, containing 1 mM of ethylene glycol-bis(β-aminoethyl ether)-N,N,N′,N′-tetraacetic acid, also known as EGTA; Millipore Sigma, USA), […] of mannitol, and 70 mM sucrose. Following homogenization, a pellet was formed by centrifugation at 15,000×g for 15 minutes at 4° C. The supernatant was collected, and an assay was immediately performed to assess cytosolic SOD levels by comparing to a standard curve. To measure mitochondrial SOD levels, the pellet was resuspended in ice-cold PBS, and the sample was measured accordingly.

[2] = NO release in solution with and without 6 Gy X-ray irradiation (Greiss assay); assay type: physicochemical; conditions: for NO release: Greiss assay
Source text: FIGS. 1A and 1B are schemes illustrating how DM1-NO encapsulated PLGA-b-PEG nanoparticles (DM1-NO-NPs) can accumulate in tumors through the EPR effect. In the presence of radiation and/or reduced pH in endosomes/lysosomes, the S—N bond was broken, releasing DM1 and NO. DM1 inhibits microtubule assembly, arresting cells at the more radiosensitive G2/M phase. Meanwhile, NO can react with ROS to form radicals such as peroxynitrites, causing DNA and lipid damages. The combined effects enhance the efficacy of RT. […] Quantification was based on Greiss assay. PBS, cell culture medium (RPBI-1640), DM1, and DM1-NPs were tested as controls. FIG. 1D is a histogram showing the results of DLS analysis of DM1-NO-NPs in water. FIG. 1E is a plot showing the zeta potential of DM1-NO-NPs in water. FIG. 1F is a bar graph illustrating the stability of DM1-NO under ambient conditions. After synthesis, dry product of DM1-NO was kept at room temperature and the total amount of remaining NO was quantified using Griess assay on Day 0, 7, 14, and 21. FIG. 1G is plot illustrating the stability of DM1-NO in solutions. DM1-NO (20.09 μmol) was dissolved in PBS of different pH (5.5, 6.5, and 7.4). Time-dependent NO release was measured on a Sievers NOA 280i system, which assesses NO based on gas phase chemiluminescent reaction between NO and ozone. FIG. 1H is a line graph showing release profiles for DM1-NO-NPs, tested in PBS of different pH at 37° C. by Greiss assays. FIG. 1I is a histogram showing the results of DLS analysis of DM1-NPs. FIG. 1J is a plot showing the zeta potential of DM1-NPs. FIG. 1K is a series of representative images of clonogenic assays. H1299 cells were treated with 20 nM of DM1 and DM1-NO for 12 h, followed −X-ray irradiation (6 Gy). […]
NO concentration was assessed to determine the amount of DM1-NO prodrug loaded into the DM1-NO-NPs. […] Therefore, to quantify the overall NO amount, the total nitrite (NO2-) and nitrate (NO3-) concentrations in a NP solution cells) were measured using Nitrate/Nitrite Colorimetric assay (Cayman Chemical) by following the vendor's protocol. […]

SMILES: COc1cc2cc(c1Cl)N(C)C(=O)C[C@@H](OC(=O)[C@H](C)N(C)C(=O)CCSN=O)[C@]1(C)OC1[C@H](C)[C@@H]1C[C@@](O)(NC(=O)O1)[C@H](OC)/C=C\C=C(/C)C2 (stereo partly drawn) [DM1-NO]
- average tumor size (volume) on Day 24 [1]: 759.33 mm3
- increase of cytosol SOD activity (H1299 cells): 70.08%
- increase of mitochondrial SOD activity (H1299 cells): 24.36%
- increase of NO release ([2]; 6 Gy X-ray irradiation applied to solution): 5.14 fold
- NO release ([2]; before 6 Gy X-ray irradiation): 3.68 µM
- NO release ([2]; in the presence of 6 Gy X-ray irradiation): 18.88 µM
